US6933321B2, “Antiandrogenic biphenyls” (Endorecherche, Inc., priority 2002, dated 2005)
Like-named read-outs stand apart in the source and are kept apart here. One block for each compound: values may come before it.

Experiments:
[1] = system: Shionogi mouse mammary carcinoma cells; experiment: Antiandrogenic activity on DHT-stimulated Shionogi mouse mammary carcinoma cell number; assay type: cell-based; conditions: for A = Ki OH-Flu/Ki compound: ratio of Ki of hydroxyflutamide versus tested compound, higher values preferable
[2] = system: ear sebaceous glands in the male hamster; experiment: Topical antiandrogenic activity, ear sebaceous glands model in the male hamster; assay type: in vivo, Golden Syrian hamster; conditions: Mesocricetus auratus, 336 h, topical on left pinna, area of sebaceous glands of left ear, read-out: Ear Area Inhibition. Vs Control (%); for inhibition in vivo at 0.01 mg: dose 10 μg daily for 14 days; for inhibition in vivo at 0.03 mg: dose 30 μg daily for 14 days
Source text: • Column 2 represent the daily dose for 14 days of tested compound dissolved in ten μl solution of acetone:ethanol:propylene Glycol (1:1:2; v:v:v) applied onto a region between the two cartilage ridges of the ventral surface of left pinna. • Column 3 represents the percentage of inhibition of the area of the sebaceous glands of the left ear of the treated animals versus the area of the sebaceous glands of the left ear of the control animals.
C—In vivo Assessment of Topical Antiandrogenic Activity
The antiandrogenic activity of compounds for topical use was determined using the ear sebaceous glands model in the male hamster.
Male Golden Syrian Hamsters (SYR) of 110-120 g were obtained from Harlan Sprague-Dawley (Madison, USA) and housed up to 2 per plastic cage in a temperature (22±3° C.) and light (12 h light/day, lights on at 7h15)-controlled environment. The hamsters were fed with Certified Rodent Diet 5002 (pellet) and had access to tap water ad libitum. The animals were acclimatized for at least five days prior to beginning the study. Animals were randomly assigned to groups of eight hamsters. One group of hamsters were castrated under isoflurane-induced anesthesia on the day of dosing initiation (SD 1) and used as control group.
To evaluate the antiandrogenic activity, the tested compounds were applied topically on the inner part of the left ear, once daily, for 14 days. […] For animals of the castrated and intact control groups, one ten-μL vehicle was applied onto the left ear. No solution was applied on the right ear.
On Study Day 15, the hamsters were euthanized by cervical dislocation under isoflurane anesthesia. The left and right ears were collected attached together by the head skin, flat fixed on a paper and then immersed in 10% neutral buffered formalin. Punctures making a circular hole of 6 mm were made on the flat fixed ear in the region where the solution has been applied. These punch-made specimens were collected from each ear. Using a scalpel blade, the collected 6 mm round ear specimens were cut in the middle between the two cartilage ridges. The two equal parts of the ear round specimens were embedded in paraffin. After processing the tissue, the two parts were vertically embedded parallel to each other in such a way that the flat 6 mm area was facing out. From each paraffin block, one section (5 μm thick) was cut and collected on a glass slide. Thus, each slide contained two elongated sections of 6 mm length. Slides were stained with hematoxylin and eosin.
Using the video camera and the lens number X5 of the light microscope, the resulting field appearing on the screen has a length of 0.953 mm. When the first 6 mm long section was examined from the left to the right, the first and second fields were ignored and the third and fourth fields were captured for analysis by the image analyzer. Each field has the length of 0.953 mm. With the help of the screen mouse, the sebaceous glands within the whole field length (0.953 mm) were marked. Also, an area having the length of the whole field and the height between stratum granulosum and the upper edge of the cartilage was drawn.
The total area of the sebaceous glands (μm^2) in each examined field was calculated by the Image Analyser. We also measured the total area, which has the length of 0.953 mm and the height between stratum granulosum and the cartilage. In addition, the percentage of the area occupied by the glands was obtained. Thus, for each ear, two sections were cut and two fields from each section were analyzed. The total of the four readings was averaged and the mean standard error of the mean was calculated by the image analyzer. The results were expressed in μm^2 as the total surface of glands per field and also as percentage of the area occupied by the glands in the tissue.

[3] = Mus musculus, read-out: Antiandrogenic activity IC50 (nM)
[4] = inhibition of DHT-stimulated Shionogi cell number
[5] = Mus musculus, inhibition of DHT-stimulated Shionogi cell number, 10-12 days, read-out: Antiandrogenic activity IC50

Structure (SMILES): COc1ccc(-c2ccc(C#N)c(C(F)(F)F)c2)c(F)c1 [EM-4174]
IC50 [1, 3]: 77 nM
A = Ki OH-Flu/Ki compound [1, 4]: 2.1
inhibition in vivo at 0.01 mg ([2]; topical): 86%

Structure (SMILES): N#Cc1ccc(-c2c(F)cccc2F)cc1C(F)(F)F [EM-4004]
IC50 [1, 5]: > 500 nM
A = Ki OH-Flu/Ki compound [1, 4]: <0.2
inhibition in vivo at 0.01 mg ([2]; topical): 60%

Structure (SMILES): N#Cc1ccc(-c2ccc(N)cc2)cc1C(F)(F)F [EM-4186]
IC50 [1, 5]: 118 nM
A = Ki OH-Flu/Ki compound [1, 4]: 1.2
inhibition in vivo at 0.03 mg ([2]; topical): 0%

Structure (SMILES): COc1ccc(-c2ccc(C#N)c(C(F)(F)F)c2)cc1F [EM-4057]
IC50 [1, 3]: 84 nM
A = Ki OH-Flu/Ki compound [1, 4]: 1.2
inhibition in vivo at 0.01 mg ([2]; topical): 64%

Structure (SMILES): N#Cc1ccc(-c2c(F)cccc2F)cc1Cl [EM-4977, 3-chloro-2′,6′-difluoro-biphenyl-4-carbonitrile]
IC50 [1, 3]: 12.8 nM
A = Ki OH-Flu/Ki compound [1, 4]: 12
inhibition in vivo at 0.001 mg ([2]; topical, dose 1 μg daily for 14 days): 25.9%
inhibition in vivo at 0.003 mg ([2]; topical, dose 3 μg daily for 14 days): 48%
inhibition in vivo at 0.01 mg ([2]; topical): 73%

Structure (SMILES): COc1ccc(-c2ccc(C#N)c(C(F)(F)F)c2)cc1Br [EM-4080]
IC50 [1, 5]: 102 nM
A = Ki OH-Flu/Ki compound [1, 4]: 0.6
inhibition in vivo at 0.03 mg ([2]; topical): 5%

Structure (SMILES): N#Cc1ccc(-c2cccc(C(O)C(F)(F)F)c2)cc1C(F)(F)F (centres unmarked) [EM-4265]
IC50 [1, 5]: 116 nM
A = Ki OH-Flu/Ki compound [1, 4]: 0.7
inhibition in vivo at 0.03 mg ([2]; topical): 0%

Structure (SMILES): COc1cc(F)ccc1-c1ccc(C#N)c(C(F)(F)F)c1 [EM-4068]
IC50 [1, 3]: 96 nM
A = Ki OH-Flu/Ki compound [1, 4]: 0.9
inhibition in vivo at 0.03 mg ([2]; topical): 15%

IC50 ([1]; inhibition of DHT-stimulated Shionogi cell number, 10-12 days, read-out: Antiandrogenic activity IC50): 161 nM
Structure (SMILES): N#Cc1ccc(-c2ccc(F)cc2C(=O)Nc2ccc(Cl)cc2)cc1C(F)(F)F [EM-4863]
A = Ki OH-Flu/Ki compound [1, 4]: 0.3
inhibition in vivo at 0.03 mg [2]: 21%

Structure (SMILES): N#Cc1ccc(-c2cc(F)ccc2F)cc1C(F)(F)F [EM-4046]
IC50 [1, 5]: > 500 nM
A = Ki OH-Flu/Ki compound [1, 4]: <0.2
inhibition in vivo at 0.03 mg ([2]; topical): 5%
